Experimental data: US9232796B2, “Herbicidal compositions comprising 4-amino-3-chloro-5-fluoro-6-(4-chloro-2-fluoro-3-methoxyphenyl) pyridine-2-carboxylic acid or a derivative thereof and acetyl-CoA carboxylase (ACCase) inhibitors” (DOW AGROSCIENCES LLC, priority 2012, dated 2016)

System: CYPIR
Assay: Example I postemergence foliar-applied, greenhouse, direct seeded rice weeds
Format: in vivo, Cyperus iria L.
Summary of the method: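 Weeds grown in loam/sandy loam–calcareous grit (80:20) under greenhouse conditions (~14 h photoperiod, ~29/26 °C day/night) and treated at first to fourth true leaf stage. Compound A (acid or esters, SC) and ACCase-inhibiting herbicides, alone and combined, sprayed at 187 L/ha with 1.25% v/v crop oil concentrate. Injury rated visually (0–100%) after ~3 weeks; expected mixture effects by Colby's equation.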

| Compound | Visual Weed Control (%) - 22 DAA CYPIR Obs (4.38 gae/ha) [%] | Visual Weed Control (%) - 20 DAA CYPIR Obs (4.38 gae/ha) [%] | Visual Weed Control (%) - 22 DAA CYPIR Obs (8 gae/ha) [%] | Visual Weed Control (%) - 20 DAA CYPIR Obs (8.75 gae/ha) [%] | Visual Weed Control (%) - 22 DAA CYPIR Obs (16 gae/ha) [%] | Visual Weed Control (%) - 22 DAA CYPIR Obs (32 gae/ha) [%] |
| --- | --- | --- | --- | --- | --- | --- |
| COc1c(Cl)ccc(-c2nc(C(=O)O)c(Cl)c(N)c2F)c1F [Compound A Acid, 4-amino-3-chloro-6-(4-chloro-2-fluoro-3-methoxyphenyl)-5-fluoropyridine-2-carboxylic acid] | 15 | – | – | – | – | – |
| COc1c(Cl)ccc(-c2nc(C(=O)OCc3ccccc3)c(Cl)c(N)c2F)c1F [Compound A Benzyl Ester, benzyl ester of 4-amino-3-chloro-5-fluoro-6-(4-chloro-2-fluoro-3-methoxy-phenyl)pyridine-2-carboxylic acid] | – | 15 | 20 | 35 | 85 | 100 |
